Our source for the EC50 values is patent US20260022096A1, “NOVEL SULFONAMIDES AND THEIR USE AS NEUROPROTECTIVE AND/OR NEURORESTORATIVE AGENTS” (GENECODE, priority 2022, published 2026).

As usually defined, the EC50 is the concentration needed to bring the measured effect to its halfway point. High values mean weaker potency, low ones greater potency.

The experiment addresses T1, GFRα1-RET (Homo sapiens, UniProt P56159).
T1 construct: expressed in transfected cells; host or cells: MG87 murine fibroblasts, stably transfected
T1 sequence (P56159 25-429 limits assumed): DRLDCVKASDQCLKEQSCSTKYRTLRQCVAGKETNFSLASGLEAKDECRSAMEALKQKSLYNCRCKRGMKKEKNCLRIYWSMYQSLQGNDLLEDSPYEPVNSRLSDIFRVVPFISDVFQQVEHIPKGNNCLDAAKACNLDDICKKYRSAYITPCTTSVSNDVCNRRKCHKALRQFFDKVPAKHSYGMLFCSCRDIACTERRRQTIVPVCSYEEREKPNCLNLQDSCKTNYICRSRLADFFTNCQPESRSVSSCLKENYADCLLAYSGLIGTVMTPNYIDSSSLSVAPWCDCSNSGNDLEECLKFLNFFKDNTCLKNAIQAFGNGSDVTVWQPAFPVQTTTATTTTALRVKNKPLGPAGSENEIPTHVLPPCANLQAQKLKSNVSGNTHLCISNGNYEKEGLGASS
The experiment can be described thus: Elk1 reporter-gene (luciferase) assay in cells expressing GFRα1-RET. Type of experiment: cell-based. The conditions noted are these: MG87 murine fibroblasts stably transfected with PathDetect Elk-1, GFRα1 and RET, 6 concentrations, agonist/activator activity. On the procedure: For ECso determination, a dose-response test was performed using 6 concentrations of each tested compound. Dose-response curves were fitted using the sigmoidal dose-response (variable slope) analysis in GraphPad Prism program (Graph Pad Inc) and ECso of agonist/activator activity was calculated. Dose-response experiments were all performed in duplicate, two times independently.
`COc1ccc(S(=O)(=O)N2CCC(c3ccccc3)CC2)cc1N1[C@@H]2CC[C@H]1CN(C(=O)c1ccc(F)cc1Cl)C2` [compound 009, (2-chloro-4-fluoro-phenyl)-[(1S,5R)-8-[2-methoxy-5-[(4-phenyl-1-piperidyl)sulfonyl]phenyl]-3,8-diazabicyclo[3.2.1]octan-3-yl]methanone]: the EC50 was in the range of 1000 to 10000 nM.

On to `COc1c(Cl)cc(S(=O)(=O)NC(C)(C)C)cc1N1[C@@H]2CC[C@H]1CN(C(=O)c1ccc(F)cc1Cl)C2` [compound 114, N-tert-butyl-3-chloro-5-[(1S,5R)-3-(2-chloro-4-fluoro-benzoyl)-3,8-diazabicyclo[3.2.1]octan-8-yl]-4-methoxy-benzenesulfonamide], for which the EC50 is less than 1000 nM.

`O=C(c1ccc(F)cc1Cl)N1C[C@H]2CC[C@@H](C1)N2c1cc(S(=O)(=O)N2CCC(c3ccccc3)CC2)cc(Cl)c1O` [compound 098] returned an EC50 of less than 1000 nM.

Regarding `O=C(c1ccc(F)cc1Cl)N1C[C@H]2CC[C@@H](C1)N2c1cc(S(=O)(=O)N2CCC(CCc3ccccc3)CC2)ccc1OCCO` [compound 077, (2-chloro-4-fluoro-phenyl)-[(1S,5R)-8-[2-(2-hydroxyethoxy)-5-[[4-(2-phenylethyl)-1-piperidyl]sulfonyl]phenyl]-3,8-diazabicyclo[3.2.1]octan-3-yl]methanone], the concentration for a half-maximal effect (EC50) is less than 1000 nM.

As to `O=C(c1ccc(F)cc1Cl)N1C[C@H]2CC[C@@H](C1)N2c1cc(S(=O)(=O)N2CCC(c3ccc(F)cc3)CC2)cc(C(F)(F)F)c1O` [compound 088, (2-chloro-4-fluoro-phenyl)-[(1S,5R)-8-[5-[[4-(4-fluorophenyl)-1-piperidyl]sulfonyl]-2-hydroxy-3-(trifluoromethyl)phenyl]-3,8-diazabicyclo[3.2.1]octan-3-yl]methanone], the concentration for a half-maximal effect (EC50) was less than 1000 nM.

Take `CN(C(C)(C)C)S(=O)(=O)c1cc(Cl)c(OCc2ccncc2)c(N2[C@@H]3CC[C@H]2CN(C(=O)c2ccc(F)cc2Cl)C3)c1` [compound 138, N-tert-butyl-3-chloro-5-[(1S,5R)-3-(2-chloro-4-fluoro-benzoyl)-3,8-diazabicyclo[3.2.1]octan-8-yl]-N-methyl-4-(4-pyridylmethoxy) benzenesulfonamide]: the EC50 is less than 1000 nM.

Take `O=C(c1ccc(F)cc1Cl)N1C[C@H]2CC[C@@H](C1)N2c1cc(S(=O)(=O)N2CCN(CCc3ccc(Cl)cc3)CC2)cc2c1OCC2` [compound 060, (2-chloro-4-fluoro-phenyl)-[(1S,5R)-8-[5-[4-[2-(4-chlorophenyl)ethyl]piperazin-1-yl]sulfonyl-2,3-dihydrobenzofuran-7-yl]-3,8-diazabicyclo[3.2.1]octan-3-yl]methanone]: the half-maximal effective concentration (EC50) was less than 1000 nM.

Molecule `C[C@@H]1CN(C(=O)c2ccc(F)cc2Cl)CCN1c1cc(S(=O)(=O)NC(C)(C)C)cc(Cl)c1O` [compound 111, N-tert-butyl-3-chloro-5-[(2R)-4-(2-chloro-4-fluoro-benzoyl)-2-methyl-piperazin-1-yl]-4-hydroxy-benzenesulfonamide] gave a concentration for a half-maximal effect (EC50) of less than 1000 nM.

`COc1ccc(S(=O)(=O)N(C)CCCF)cc1N1CCN(C(=O)c2ccc(F)cc2Cl)CC1C` (racemic) [compound 038, N-(3-fluoropropyl)-4-methoxy-N-methyl-3-[rac-(2S)-4-(2-chloro-4-fluoro-benzoyl)-2-methyl-piperazin-1-yl]benzenesulfonamide]: the EC50 is 1000 to 10000 nM.

Turning to `CCCN(C)S(=O)(=O)c1ccc(OC2CCC2)c(N2[C@@H]3CC[C@H]2CN(C(=O)c2ccc(F)cc2Cl)C3)c1` [compound 030, 3-[(1S,5R)-3-(2-chloro-4-fluoro-benzoyl)-3,8-diazabicyclo[3.2.1]octan-8-yl]-4-(cyclobutoxy)-N-methyl-N-propyl-benzenesulfonamide], the EC50 was 1000 to 10000 nM.

In turn, `COc1ccc(S(=O)(=O)N2CCC(Cc3ccccc3)CC2)cc1N1CCN(C(=O)c2ccc(F)cc2C(F)(F)F)CC1C` (racemic) [compound 018, [4-fluoro-2-(trifluoromethyl)phenyl]-[rac-(3S)-4-[5-[(4-benzyl-1-piperidyl)sulfonyl]-2-methoxy-phenyl]-3-methyl-piperazin-1-yl]methanone] returned an EC50 of 1000 to 10000 nM.

`CCN(CC)S(=O)(=O)c1cnc(OCc2ccccc2)c(N2[C@@H]3CC[C@H]2CN(C(=O)c2ccc(F)cc2Cl)C3)c1` [compound 034, 6-benzyloxy-5-[(1S,5R)-3-(2-chloro-4-fluoro-benzoyl)-3,8-diazabicyclo[3.2.1]octan-8-yl]-N,N-diethyl-pyridine-3-sulfonamide]: the EC50 was less than 1000 nM.

As to `COc1ccc(S(=O)(=O)N2CCC(Cc3ccccc3)CC2)cc1N1C2CCC1CN(C(=O)c1ccc(F)cc1Cl)C2` (racemic) [compound 025, (2-chloro-4-fluoro-phenyl)-[rac-(1S,5S)-8-[5-[(4-benzyl-1-piperidyl)sulfonyl]-2-methoxy-phenyl]-3,8-diazabicyclo[3.2.1]]octan-3-yl]methanone], the half-maximal effective concentration (EC50) is 1000 to 10000 nM.

Regarding `Cc1c(Cl)cc(S(=O)(=O)N(C)C(C)(C)C)cc1N1[C@@H]2CC[C@H]1CN(C(=O)c1ccc(F)cc1Cl)C2` [compound 132, N-tert-butyl-3-chloro-5-[(1S,5R)-3-(2-chloro-4-fluoro-benzoyl)-3,8-diazabicyclo[3.2.1]octan-8-yl]-N,4-dimethyl-benzenesulfonamide], the EC50 was less than 1000 nM.

In turn, `CN(C1(C)COC1)S(=O)(=O)c1cc(Cl)c(O)c(N2[C@@H]3CC[C@H]2CN(C(=O)c2ccc(F)cc2Cl)C3)c1` [compound 106, 3-chloro-5-[(1S,5R)-3-(2-chloro-4-fluoro-benzoyl)-3,8-diazabicyclo[3.2.1]octan-8-yl]-4-hydroxy-N-methyl-N-(3-methyloxetan-3-yl)benzenesulfonamide] came in with an EC50 of less than 1000 nM.

Molecule `COc1ccc(S(=O)(=O)N2CCN(CC(C)c3ccc(F)cc3)CC2)cc1N1C2CCC1CN(C(=O)c1ccc(F)cc1Cl)C2` (racemic) [compound 045, (2-chloro-4-fluoro-phenyl)-[(1S,5R)-8-[5-[4-[(2RS)-2-(4-fluorophenyl)propyl]piperazin-1-yl]sulfonyl-2-methoxy-phenyl]-3,8-diazabicyclo[3.2.1]octan-3-yl]methanone] returned an EC50 of less than 1000 nM.

Regarding `CCN(CC)S(=O)(=O)c1cnc(OC)c(N2[C@@H]3CC[C@H]2CN(C(=O)c2ccc(F)cc2Cl)C3)c1` [compound 033, 5-[(1S,5R)-3-(2-chloro-4-fluoro-benzoyl)-3,8-diazabicyclo[3.2.1]octan-8-yl]-N,N-diethyl-6-methoxy-pyridine-3-sulfonamide], the half-maximal effective concentration (EC50) was in the range of 1000 to 10000 nM.

`CCc1cc(S(=O)(=O)N2CCC(c3ccccc3)CC2)cc(N2[C@@H]3CC[C@H]2CN(C(=O)c2ccc(F)cc2Cl)C3)c1O` [compound 094, (2-chloro-4-fluoro-phenyl)-[(1S,5R)-8-[3-ethyl-2-hydroxy-5-[(4-phenyl-1-piperidyl)sulfonyl]phenyl]-3,8-diazabicyclo[3.2.1]octan-3-yl]methanone]: the EC50 was less than 1000 nM.

Consider `CC(C)(C)NS(=O)(=O)c1cc2c(c(N3[C@@H]4CC[C@H]3CN(C(=O)c3ccc(F)cc3Cl)C4)c1)OCC2` [compound 057, N-tert-butyl-7-[(1S,5R)-3-(2-chloro-4-fluoro-benzoyl)-3,8-diazabicyclo[3.2.1]octan-8-yl]-2,3-dihydrobenzofuran-5-sulfonamide], for which the EC50 is less than 1000 nM.

Consider `COc1ccc(S(=O)(=O)NC(C)(C)C)cc1N1[C@@H]2CC[C@H]1CN(C(=O)c1ccc(F)cc1Cl)C2` [compound 002], for which the EC50 was 1000 to 10000 nM.

In the case of `COc1ccc(S(=O)(=O)N2C[C@H]3CCCC[C@H]3C2)cc1N1[C@@H]2CC[C@H]1CN(C(=O)c1ccc(F)cc1Cl)C2` [compound 015, [(1S,5R)-8-[5-[[(3aS,7aR)-1,3,3a,4,5,6,7,7a-octahydroisoindol-2-yl]sulfonyl]-2-methoxy-phenyl]-3,8-diazabicyclo[3.2.1]octan-3-yl]-(2-chloro-4-fluoro-phenyl)methanone], the EC50 was less than 1000 nM.

As to `O=C(c1ccc(F)cc1Cl)N1C[C@H]2CC[C@@H](C1)N2c1cc(S(=O)(=O)N2CCC(c3ccc(F)cc3)CC2)ccc1O` [compound 065, (2-chloro-4-fluoro-phenyl)-[(1S,5R)-8-[5-[[4-(4-fluorophenyl)-1-piperidyl]sulfonyl]-2-hydroxy-phenyl]-3,8-diazabicyclo[3.2.1]octan-3-yl]methanone], the concentration giving a half-maximal response (EC50) is less than 1000 nM.
